Results published in patent US6486144B1, “Method of treatment of liver tumors and pharmaceutical compositions for use therein” (priority 1997, dated 2002).
Several values for one entry are separate records, joined by “and”; a condition that tells them apart may be missing. Equal entries are not always repeated. Entries after “also recorded” stand apart in the source; their conditions may differ.

What was measured:
[1] = Phase 1 trial of hepatic artery infusion: safety, serum calcium; type: in vivo, human
Text: Regular assay of LFTs, UECs, and calcium and phosphate levels, together with AFP or CEA levels.
Patients 3, 5 and 6 were initially given 2 mcg/day, and then four weeks of 5 mcg/week.
Patient 4 was hypercalcaemic due to a paraneoplastic phenomena prior to treatment, and was therefore given lower dosages.
Patient 7 was commenced on the same dosage regimen as patients 3, 5 and 6 but was withdrawn from the trial prior to starting 10 mcg/day due to progression of their disease.
Calcium levels—looking for the development of hypercalcaemia
UECs and LFTs—looking for unexpected effects upon hepatic and renal function.

[2] = pig model, intravenous versus hepatic arterial infusion, serum calcium; type: in vivo, Female Landrace pigs; details: for calcium levels: pig
Text: Female Landrace pigs (minimal disease) of weight 15-50 kg.
This infusion was delivered for a one or two week period, after which the animal was not treated for 4 weeks to allow any induced hepatic enzymes to diminish. The animal was then “crossed over” those whose first infusion was via the hepatic artery had their pump connected to an intravenous catheter and vice versa.
Blood was taken regularly and assayed foe calcium levels, LFTs and UECs.

[3] = tested on: human hepatoma cell line, Hep G2; assay: in vitro growth of human hepatoma cell line Hep G2 (thymidine uptake); type: cell-based; details: for % of control ±SEM: treated for 5 days
Protocol: (§1) Results are % of control ±SEM
(§2) LoVo cells were treated for 10 days, while HepG2 cells were treated for 5 days, with D3 or EB1089.

[4] = type: physicochemical
Protocol: To illustrate the solubility of vitamin D compound in lipiodol radiolabelled vitamin D3 was dissolved in lipiodol at various amounts and the compared to the solubility of radiolabelled vitamin D3.

[5] = 2 mcg/day administered orally; cited from earlier work
[6] = tested on: human colon cancer cells LoVo; assay: in vitro growth of human colon cancer cells LoVo; type: cell-based; details: treated for 10 days
Protocol: as §1, §2

[7] = tested on: liver cancers (hepatoma or colorectal cancer metastases); assay: Phase 1 trial of hepatic artery infusion: tumour marker (CEA or AFP) response; type: in vivo, human; details: for patients with at least a limited response (fall in the rate of rise of tumour marker): hepatic artery infusion
Text: 2. To investigate the effects of such an infusion upon liver cancers by monitoring of tumour marker levels and their rate of rise. […] Regular assay of LFTs, UECs, and calcium and phosphate levels, together with AFP or CEA levels. CEA or AFP levels—looking for evidence of response of the tumours to treatment

[8] = tested on: NovoKoff; assay: effect of EB1089 on hepatoma cell line NovoKoff; type: cell-based; design: unit not given here; details: day 5, 5% charcoal treated media, repeated experiments
Text: (§3) (All experiments carried out in 5% charcoal treated media. All day 5. Successive lines of results for a particular cell line are the results for repeated experiment)

[9] = tested on: SK-Hep; assay: effect of EB1089 on hepatoma cell line SK-Hep; type: cell-based; design: unit not given here; details: day 5, 5% charcoal treated media, repeated experiments
Text: as §3

[10] = tested on: PCL; assay: effect of EB1089 on hepatoma cell line PCL; type: cell-based; design: unit not given here; details: day 5, 5% charcoal treated media, repeated experiments
Text: as §3

[11] = tested on: HTC; assay: effect of EB1089 on hepatoma cell line HTC; type: cell-based; design: unit not given here; details: day 5, 5% charcoal treated media, repeated experiments
Text: as §3

[12] = tested on: Morris; assay: effect of EB1089 on hepatoma cell line Morris; type: cell-based; design: unit not given here; details: day 5, 5% charcoal treated media, repeated experiments
Text: as §3

[13] = tested on: Hep 1-6; assay: effect of EB1089 on hepatoma cell line Hep 1-6; type: cell-based; design: unit not given here; details: day 5, 5% charcoal treated media, repeated experiments
Text: as §3

[14] = tested on: human hepatoma; details: cited from earlier work
[15] = tested on: breast cancer; details: topical, cited from earlier work

C=C1/C(=C\C=C2/CCC[C@]3(C)[C@@H]([C@H](C)CCCC(C)(C)O)CC[C@@H]23)C[C@@H](O)C[C@@H]1O [1.25(OH)2D3, 1.25-dihydroxycholecalciferol]
hypercalcaemia developed ([1]; hepatic arterial infusion, 15 mcg/day): two out of three patients
derangement of hepatic or renal function ([1]; hepatic artery infusion, seven patients): Nor did any patient experience any derangement of hepatic or renal function
unexpected adverse reaction or side effect to the infusion ([1]; hepatic artery infusion, seven patients, listed as 1.25(OH)D3): No patient suffered any unexpected adverse reaction or side effect; also recorded: safe and without unexpected side effects
dose administered without any observable systemic toxicity ([1]; intraarterially to the liver, patients): at least 10 mcg/day
calcium level ([1]; patient with pre existing hypercalcaemia (FIG. 3)): did not rise with treatment
hypercalcaemia during treatment ([1]; patients 1 and 2, lower doses): Neither patients 1 nor 2 became hypercalcaemic
calcium levels ([2]; hepatic arterial infusion, similar dosage, listed as 1.25(OH)D3): does not affect calcium levels; also recorded: does not produce the hypercalcaemia
calcium levels ([2]; intravenous infusion): results in hypercalcaemia
LFTs and UECs ([2]; pigs, either route): normal in all animals throughout
unexpected reaction ([2]; pigs, either route): No pig suffered any unexpected reaction
inhibition of growth ([3]; Hep G2, 10^−11M): considerably less effective
inhibition of growth ([3]; Hep G2, reduction in thymidine uptake, dose dependent (FIG. 1)): 95%
% of control ±SEM ([3]; HepG2, 10^−7 M): 7.1 ± 6.3 % of control
% of control ±SEM ([3]; HepG2, 10^−8 M): 8.6 ± 6.3 % of control
% of control ±SEM ([3]; HepG2, 10^−9 M): 13.8 ± 6.4 % of control
% of control ±SEM ([3]; HepG2, 10^−10 M): 56.6 ± 6.7 % of control
% of control ±SEM ([3]; HepG2, 10^−11 M): 105.6 ± 6.6 % of control
amount readily dissolved ([4]; in 1 ml lipiodol): ≥ 2 mg
hypercalcaemia, share of patients [5]: 50 % of patients
% of control ±SEM ([6]; 10^−7 M): 34.2 ± 3.8 % of control
% of control ±SEM ([6]; 10^−8 M): 53.1 ± 5.0 % of control
% of control ±SEM ([6]; 10^−9 M): 74.2 ± 6.8 % of control
% of control ±SEM ([6]; 10^−10 M): 96.5 ± 12.9 % of control
% of control ±SEM ([6]; 10^−11 M): 127.4 ± 7.1 % of control
patients with at least a limited response (fall in the rate of rise of tumour marker) [7]: 4 of 7 patients
tumour marker level ([7]; patient 1): dramatically increased at the onset of treatment but this was followed by an equally dramatic fall in the level
tumour marker level ([7]; patient 2): levelling off of the rate of rise with time
tumour marker level ([7]; patient 3): dramatic fall in marker level initially, but later this resumed it rise
rate of rise of CEA levels ([7]; patient 7): appears to have slowed somewhat
CEA levels rate of rise ([7]; patients 5 and 6): did not appear to have any response to treatment

C=C1/C(=C\C=C2/CCC[C@]3(C)[C@@H]([C@H](C)/C=C/C=C/C(O)(CC)CC)CC[C@@H]23)C[C@@H](O)C[C@@H]1O [EB1089, 1 α.25 (OH)2 22.24 diene 24.26.27 trihomo D3]
effect on hepatoma cell line ([8]; 10^7 M): 91.5 ± 14.5 and 84.6 ± 17.0
effect on hepatoma cell line ([8]; 10^8 M): 106.0 ± 18.1 and 79.0 ± 18.4
effect on hepatoma cell line ([8]; 10^9 M): 103.7 ± 13.8 and 95.4 ± 18.2
effect on hepatoma cell line ([8]; 10^11 M): 131.0 ± 15.9 and 92.6 ± 17.6
effect on hepatoma cell line ([8]; 10^-10 M): 116.3 ± 22.1 and 94.0 ± 21.4
% of control ±SEM ([3]; HepG2, 10^−7 M): 11.2 ± 2.7 % of control
% of control ±SEM ([3]; HepG2, 10^−8 M): 13.1 ± 2.8 % of control
% of control ±SEM ([3]; HepG2, 10^−9 M): 13.2 ± 2.7 % of control
% of control ±SEM ([3]; HepG2, 10^−10 M): 49.1 ± 2.9 % of control
% of control ±SEM ([3]; HepG2, 10^−11 M): 41.7 ± 3.6 % of control
effect on hepatoma cell line ([9]; 10^8 M): 63.1 ± 16.2 and 71.3 ± 11.8 and 83.1 ± 4.2 and 95.6 ± 12.2
effect on hepatoma cell line ([9]; 10^9 M): 52.1 ± 8.8 and 61.6 ± 12.2 and 88.4 ± 4.1 and 103.1 ± 12.4
effect on hepatoma cell line ([9]; 10^11 M): 82 ± 9.2 and 78.8 ± 11.5 and 118.3 ± 26.4 and 66.9 ± 36.9
effect on hepatoma cell line ([9]; 10^-10 M): 52.1 ± 8.6 and 61.1 ± 16.6 and 91.0 ± 4.5 and 103.8 ± 11.7
effect on hepatoma cell line ([10]; 10^7 M): 98.5 ± 4.5 and 106.0 ± 9.1
effect on hepatoma cell line ([10]; 10^8 M): 101.6 ± 11.5 and 105.2 ± 4.9
effect on hepatoma cell line ([10]; 10^9 M): 98.3 ± 6.5 and 95.1 ± 3.3
effect on hepatoma cell line ([10]; 10^10 M): 92.5 ± 6.6 and 100.1 ± 2.1
effect on hepatoma cell line ([10]; 10^11 M): 102.5 ± 10.0 and 95.9 ± 2.9
effect on hepatoma cell line ([11]; 10^7 M): 95.3 ± 17.7 and 57.9 ± 7.2
effect on hepatoma cell line ([11]; 10^8 M): 86.9 ± 15.0 and 63.9 ± 12.5
effect on hepatoma cell line ([11]; 10^9 M): 100.4 ± 15.4 and 97.4 ± 13.8
effect on hepatoma cell line ([11]; 10^11 M): 98.8 ± 15.5 and 95.9 ± 13.0
effect on hepatoma cell line ([11]; 10^-10 M): 113.0 ± 22.1 and 107.8 ± 12.7
% of control ±SEM ([6]; 10^−7 M): 40.5 ± 10.7 % of control
% of control ±SEM ([6]; 10^−8 M): 51.0 ± 10.3 % of control
% of control ±SEM ([6]; 10^−9 M): 73.3 ± 11.7 % of control
% of control ±SEM ([6]; 10^−10 M): 55.3 ± 13.7 % of control
% of control ±SEM ([6]; 10^−11 M): 64.7 ± 12.7 % of control
effect on hepatoma cell line ([12]; 10^7 M): 136.0 ± 12.5 and 80.1 ± 5.2
effect on hepatoma cell line ([12]; 10^8 M): 134.0 ± 13.3 and 83.3 ± 4.7
effect on hepatoma cell line ([12]; 10^9 M): 117.8 ± 11.7 and 79.1 ± 4.9
effect on hepatoma cell line ([12]; 10^10 M): 118.0 ± 11.9 and 88.3 ± 3.9
effect on hepatoma cell line ([12]; 10^-11 M): 118.0 ± 14.3 and 90.8 ± 5.9
effect on hepatoma cell line ([13]; Hep 1-6, 10^8 M): 63.9 ± 7.0 and 113.4 ± 5.6
effect on hepatoma cell line ([13]; Hep 1-6, 10^9 M): 78.1 ± 11.4 and 106.7 ± 5.4
effect on hepatoma cell line ([13]; Hep 1-6, 10^11 M): 103.4 ± 9.2 and 98.1 ± 4.3
effect on hepatoma cell line ([13]; Hep 1-6, 10^-10 M): 110.8 ± 13.8 and 103.5 ± 4.5

CC/C(=C(\c1ccccc1)c1ccc(OCCN(C)C)cc1)c1ccccc1 [Tamoxifen]
survival [14]: significantly, but modestly, improve survival

C=C1CC[C@H](O)C/C1=C/C=C1\CCC[C@]2(C)[C@@H]([C@H](C)CCCC(C)C)CC[C@@H]12 [vitamin D3, cholecalciferol]
solubility in lipiodol compared with aqueous medium [4]: substantially more soluble in lipiodol
patients with at least a limited response (fall in the rate of rise of tumour marker) [7]: 4 of 7 patients

C=C1/C(=C\C=C2/CCC[C@]3(C)[C@@H]([C@H](C)/C=C/[C@@H](O)C4CC4)CC[C@@H]23)C[C@@H](O)C[C@@H]1O [Calcipotriol, calcipotriol]
patients with a minimal response ([15]; of the 19 patients treated): 1 patients
patients with a significant response ([15]; of the 19 patients treated): 3 patients
patients who became hypercalcaemic during treatment [15]: 2 of the 19 patients
